“Also recorded” adds a separate entry of the source.
Columns and labels:
Assay type in all cases: cell-based
PRMT5 [1] = biological target: T1, PRMT5 (Homo sapiens, UniProt O14744); test: Western blot of PRMT5 protein levels in H2171 cells; design: endogenous in cells; conditions: 5 μM, 6 days
Method: (§1) MCF-7 cells, HEK293T cells and HeLa cells were cultured in Dulbecco's Modified Eagle Medium (DMEM) supplemented with 10% fetal bovine serum (FBS) in 5% CO2 at 37° C. Jurkat cells were cultured in RPMI 1640 medium supplemented with 10% FBS in 5% CO2 at 37° C. H2171 cells were cultured in HITES medium supplemented with 10% FBS in 5% CO2 at 37° C. HCT116 were cultured in McCoy's 5A medium supplemented with 10% fetal bovine serum (FBS) in 5% CO2 at 37° C. All the cells lines were treated with 5 μM (or indicated concentration) of PRMT5 inhibitor (EPZ015666) or degraders, or equivalent volume of DMSO for 6 days (or indicated time points). Fresh compounds were constituted in medium and used for every 2 days. The antibodies used in this study are: PRMT5 antibody (Active Motif), (3-actin antibody (Sigma), SDMA antibody (collaboration with Cell Signaling Technologies). Cell cultures were harvested at the end of compound treatments and applied subjected to western blotting assay. Briefly, cells were washed with PBS and lysed with RIPA lysis buffer for 20 minutes on ice. Then lysates were centrifuged and the clear supernatant were collected. SDS loading buffer was added to the lysates and then the mixture was boiled at 100° C. for 5 minutes. Samples were loaded to 10% or 12% SDS-PAGE gel and ran at 120V for 1.5 hours. […]

PRMT5 substrates = test: Arginine symmetric dimethylation (SDMA Western blot) in MCF-7 cells
Method: MCF-7 cells, HEK293T cells and HeLa cells were cultured in Dulbecco's Modified Eagle Medium (DMEM) supplemented with 10% fetal bovine serum (FBS) in 5% CO2 at 37° C. Jurkat cells were cultured in RPMI 1640 medium supplemented with 10% FBS in 5% CO2 at 37° C. H2171 cells were cultured in HITES medium supplemented with 10% FBS in 5% CO2 at 37° C. HCT116 were cultured in McCoy's 5A medium supplemented with 10% fetal bovine serum (FBS) in 5% CO2 at 37° C. All the cells lines were treated with 5 μM (or indicated concentration) of PRMT5 inhibitor (EPZ015666) or degraders, or equivalent volume of DMSO for 6 days (or indicated time points). Fresh compounds were constituted in medium and used for every 2 days. The antibodies used in this study are: PRMT5 antibody (Active Motif), (3-actin antibody (Sigma), SDMA antibody (collaboration with Cell Signaling Technologies). Cell cultures were harvested at the end of compound treatments and applied subjected to western blotting assay. Briefly, cells were washed with PBS and lysed with RIPA lysis buffer for 20 minutes on ice. Then lysates were centrifuged and the clear supernatant were collected. SDS loading buffer was added to the lysates and then the mixture was boiled at 100° C. for 5 minutes. Samples were loaded to 10% or 12% SDS-PAGE gel and ran at 120V for 1.5 hours. Then the proteins were transferred to PVDF membrane and blocked in 5% milk fat at room temperature for 1 hour. Then the membranes were incubated with indicated antibodies at 4° C. overnight. Membranes were washed with PBST buffer three times for 10 minutes each time and incubated with HRP-conjugated (horse radish peroxidase) secondary antibodies at room temperature for 1 hour. Again the membranes were washed with PBST buffer three times for 10 minutes each time. Finally, the indicated proteins on the membranes were visualized with ECL (enhanced chemiluminescence) reagents. MCF-7 cells were treated with EPZ015666 or YS43-22 at indicated compound concentrations (μM) for 6 days.

PRMT5 [2] = biological target: T1, PRMT5; test: Western blot of PRMT5 protein levels in Jurkat cells; design: endogenous in cells; conditions: 5 μM, 6 days
Method: as §1

PRMT5 [3] = biological target: T1, PRMT5; test: Western blot of PRMT5 protein levels in MCF-7 cells; design: endogenous in cells; host or cells: MCF-7
Method: MCF-7 cells, HEK293T cells and HeLa cells were cultured in Dulbecco's Modified Eagle Medium (DMEM) supplemented with 10% fetal bovine serum (FBS) in 5% CO2 at 37° C. Jurkat cells were cultured in RPMI 1640 medium supplemented with 10% FBS in 5% CO2 at 37° C. H2171 cells were cultured in HITES medium supplemented with 10% FBS in 5% CO2 at 37° C. HCT116 were cultured in McCoy's 5A medium supplemented with 10% fetal bovine serum (FBS) in 5% CO2 at 37° C. All the cells lines were treated with 5 μM (or indicated concentration) of PRMT5 inhibitor (EPZ015666) or degraders, or equivalent volume of DMSO for 6 days (or indicated time points). Fresh compounds were constituted in medium and used for every 2 days. The antibodies used in this study are: PRMT5 antibody (Active Motif), (3-actin antibody (Sigma), SDMA antibody (collaboration with Cell Signaling Technologies). Cell cultures were harvested at the end of compound treatments and applied subjected to western blotting assay. Briefly, cells were washed with PBS and lysed with RIPA lysis buffer for 20 minutes on ice. Then lysates were centrifuged and the clear supernatant were collected. SDS loading buffer was added to the lysates and then the mixture was boiled at 100° C. for 5 minutes. Samples were loaded to 10% or 12% SDS-PAGE gel and ran at 120V for 1.5 hours. Then the proteins were transferred to PVDF membrane and blocked in 5% milk fat at room temperature for 1 hour. Then the membranes were incubated with indicated antibodies at 4° C. overnight. Membranes were washed with PBST buffer three times for 10 minutes each time and incubated with HRP-conjugated (horse radish peroxidase) secondary antibodies at room temperature for 1 hour. Again the membranes were washed with PBST buffer three times for 10 minutes each time. Finally, the indicated proteins on the membranes were visualized with ECL (enhanced chemiluminescence) reagents. MCF-7 cells were treated with DMSO or indicated compounds at 5 μM for 6 days. […] MCF-7 cells were treated with DMSO or indicated serial dilutions of compounds for 6 days. The PRMT5 protein levels were determined by Western blot.

T1 sequence (O14744 whole entry): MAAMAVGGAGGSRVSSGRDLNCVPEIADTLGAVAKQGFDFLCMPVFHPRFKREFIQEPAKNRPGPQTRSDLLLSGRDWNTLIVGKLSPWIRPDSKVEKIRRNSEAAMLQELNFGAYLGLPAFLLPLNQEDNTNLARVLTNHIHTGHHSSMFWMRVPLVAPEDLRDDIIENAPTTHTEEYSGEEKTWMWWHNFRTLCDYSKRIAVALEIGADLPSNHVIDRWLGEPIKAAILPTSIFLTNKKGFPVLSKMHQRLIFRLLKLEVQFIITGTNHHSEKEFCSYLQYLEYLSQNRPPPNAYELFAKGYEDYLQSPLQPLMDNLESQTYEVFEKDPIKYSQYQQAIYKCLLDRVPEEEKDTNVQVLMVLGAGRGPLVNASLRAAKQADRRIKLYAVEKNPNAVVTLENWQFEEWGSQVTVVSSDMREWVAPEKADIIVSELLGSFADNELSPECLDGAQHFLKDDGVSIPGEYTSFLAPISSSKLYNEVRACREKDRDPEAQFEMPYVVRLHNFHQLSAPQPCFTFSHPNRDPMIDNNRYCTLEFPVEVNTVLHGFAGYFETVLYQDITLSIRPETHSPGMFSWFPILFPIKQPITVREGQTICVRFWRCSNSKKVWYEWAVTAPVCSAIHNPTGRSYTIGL
T1 sequence (Q9BQA1 whole entry partner): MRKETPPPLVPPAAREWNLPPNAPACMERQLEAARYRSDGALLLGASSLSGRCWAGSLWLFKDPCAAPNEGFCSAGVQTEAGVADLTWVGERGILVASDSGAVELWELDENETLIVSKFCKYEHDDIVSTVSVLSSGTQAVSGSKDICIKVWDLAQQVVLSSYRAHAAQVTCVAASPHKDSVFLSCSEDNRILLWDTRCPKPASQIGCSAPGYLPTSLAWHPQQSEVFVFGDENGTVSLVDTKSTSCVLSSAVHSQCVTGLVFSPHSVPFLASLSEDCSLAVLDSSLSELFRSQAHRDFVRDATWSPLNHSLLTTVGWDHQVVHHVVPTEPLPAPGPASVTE

PRMT5 protein levels (PRMT5 [1]): not obviously
PRMT5 protein levels (PRMT5 [2]): very well
suppressing PRMT5 expression (PRMT5 [3]; MCF-7 cells (Examples 90-92)): especially effective
PRMT5 protein levels (PRMT5 [3]; MCF-7 cells, 5 μM, 6 days, Western blot): very well
Compound: Cc1ncsc1-c1ccc([C@H](C)NC(=O)[C@@H]2C[C@@H](O)CN2C(=O)[C@@H](NC(=O)COCCOCCOCCOCCOCC(=O)N2CC(Nc3cc(C(=O)NC[C@H](O)CN4CCc5ccccc5C4)ncn3)C2)C(C)(C)C)cc1 [YS43-22, N-((S)-3-(3,4-dihydroisoquinolin-2(1H)-yl)-2-hydroxypropyl)-6-((1-((S)-19-((2S,4R)-4-hydroxy-2-(((S)-1-(4-(4-methylthiazol-5-yl)phenyl)ethyl)carbamoyl)pyrrolidine-1-carbonyl)-20,20-dimethyl-17-oxo-3,6,9,12,15-pentaoxa-18-azahenicosanoyl)azetidin-3-yl)amino)pyrimidine-4-carboxamide]
suppressing PRMT5 activity (PRMT5 substrates; MCF-7 cells (Examples 90-92)): especially effective
inhibition of arginine symmetric dimethylation (PRMT5 substrates; MCF-7 cells, indicated concentrations (μM), 6 days): significantly inhibited; also recorded: significant inhibition
PRMT5 protein levels, concentration and time dependence (PRMT5 [3]; MCF-7 cells, serial dilutions of compounds, 6 days, Western blot): concentration- and time-dependent; also recorded: significantly reduced
